Experimental data reported in US20200262869A1, “PEPTIDE ANTIBIOTIC COMPLEXES AND METHODS OF USE THEREOF” (GENENTECH, INC., priority 2017, published 2020).
Values after ≈ are worked out from the molar mass of the structure shown. Read-outs that look alike come from different tables or passages of the source.

Tests used:
Format in all cases: cell-based
[1] = system: 49 multidrug resistant clinical isolates of E. coli and K. pneumoniae; experiment: MIC against CDC challenge panel of 49 multidrug resistant clinical isolates; conditions: CDC challenge set
Description: To better assess the ability of G0775 to circumvent specific resistance mechanisms, a single MDR isolate, CDC 0106, was focused on. […] Chromosomal mutations associated with high level quinolone resistance and polymyxin resistance were also identified (FIGS. 10A-10B). Importantly, the elements encoded by CDC 0106 confer resistance to nearly all available antibiotic classes (Table 2).
(§1) Minimum Inhibitory Concentration (MIC). MICs were determined by performing two-fold serial dilutions of compound in Mueller Hinton II cation-adjusted broth to a final volume of 0.1 m1 in round-bottom 96-well assay plates (Corning Life Sciences No 3788). Each well was inoculated with 5×10^5 CFU/ml and incubated at 37° C. without agitation for 18 hours. Plates were scored by eye, and the lowest compound concentration preventing visible growth was determined to be the MIC.

E. coli ATCC 25922 = experiment: MIC, broth microdilution
Description: as §1

E. aerogenes ATCC 13408 = experiment: MIC, broth microdilution; conditions: Klebsiella aerogenes, ATCC13408, read-out: MIC
Description: as §1

P. aeruginosa ATCC 27853 = experiment: MIC, broth microdilution; conditions: Pseudomonas aeruginosa, ATCC27853, read-out: MIC
Description: as §1

E. cloacae ATCC 13407 = experiment: MIC, broth microdilution; conditions: Enterobacter cloacae, ATCC13407, read-out: MIC
Description: as §1

S. marcescens CDC4385-74 = experiment: MIC, broth microdilution; conditions: Serratia marcescens, CDC438574, read-out: MIC
Description: as §1

K. pneumoniae ATCC 43816 = experiment: MIC, broth microdilution
Description: as §1

A. baumannii ATCC 17978 = experiment: MIC, broth microdilution; conditions: Acinetobacter baumannii, ATCC17978, read-out: MIC
Description: as §1

[2] = system: E. coli K-12 MG1655 and isogenic matched strains; experiment: MIC against E. coli K-12 MG1655 and isogenic matched strains; conditions: for MIC: Escherichia coli
Description: as §1

`Cc1nc(-c2ccc(C(C)(C)C)cc2)ncc1C(=O)NC(CCN)C(=O)N(C)C1C(=O)NC(C)C(=O)NC(C(=O)NCC#N)Cc2ccc(OCCN)c(c2)-c2cc1ccc2OCCN` (stereo not shown) [G0775] was tested, and the “activity against panel of 49 multidrug resistant clinical isolates (MIC)” value [1] was “maintains its potent activity against all 49 isolates”, the “potency relative to arylomycin A-C16” value (E. coli ATCC 25922; E. coli, more potent than arylomycin A-C16) was greater than 500 fold and the MIC (E. coli ATCC 25922; Escherichia coli, ATCC25922, E. coli ATCC 25922, read-out: MIC) was 0.125 µg/mL (≈ 0.14 µM). For the same compound, the MIC (E. aerogenes ATCC 13408) was 0.125 µg/mL (≈ 0.14 µM), the MIC (P. aeruginosa ATCC 27853) was 4 µg/mL (≈ 4.49 µM) and the MIC (E. cloacae ATCC 13407) was 0.25 µg/mL (≈ 0.281 µM). The MIC (S. marcescens CDC4385-74) was 0.125 µg/mL (≈ 0.14 µM), the “potency relative to arylomycin A-C16” value (K. pneumoniae ATCC 43816; K. pneumoniae, more potent than arylomycin A-C16) was greater than 500 fold and the MIC (K. pneumoniae ATCC 43816; Klebsiella pneumoniae, ATCC43816, K. pneumoniae ATCC 43816, read-out: MIC) was 0.125 µg/mL (≈ 0.14 µM). It also gave an MIC (A. baumannii ATCC 17978) of 1 µg/mL (≈ 1.12 µM), an MIC ([2]; MG1655, read-out: G0775 MIC, MG 1655 - LepB High, increase LepB expression level) of 1 µg/mL (≈ 1.12 µM) and an MIC ([2]; MG1655, read-out: G0775 MIC, MG 1655 - LepB Low, reduced LepB expression level) of 0.008 µg/mL (≈ 0.00899 µM). It also gave an MIC ([2]; MG1655, read-out: G0775 MIC, MG 1655 LptD4213 (imp), outer-membrane permeable) of 0.004 µg/mL (≈ 0.00449 µM), an MIC ([2]; MG1655, read-out: G0775 MIC, MG1655 WT) of 0.125 µg/mL (≈ 0.14 µM) and an MIC ([2]; MG1655, read-out: G0775 MIC, MG1655 WT + 4 mM EDTA, outer-membrane permeable) of 0.004 µg/mL. It also gave an MIC ([2]; MG1655, read-out: G0775 MIC, MG1655 WT + 1% surfactant, lung inactivation) of 0.125 µg/mL, an MIC ([2]; MG1655, read-out: G0775 MIC, MG1655 WT + 50% serum, plasma protein binding) of 0.125 µg/mL and an MIC ([2]; MG1655, read-out: G0775 MIC, MG 1655 ΔacrB, efflux null) of 0.125 µg/mL (≈ 0.14 µM). The MIC ([2]; MG1655, read-out: G0775 MIC, MG 1655 ΔompC, ΔompF, doubly porin deficient) was 0.125 µg/mL (≈ 0.14 µM), the MIC ([2]; MG1655, read-out: G0775 MIC, MG 1655 ΔompC, porin deficient) was 0.125 µg/mL (≈ 0.14 µM) and the MIC ([2]; MG1655, read-out: G0775 MIC, MG 1655 ΔompF, porin deficient) was 0.125 µg/mL (≈ 0.14 µM). For the same compound, the MIC ([2]; MG1655, read-out: G0775 MIC, MG 1655 ΔtolC, efflux null) was 0.125 µg/mL (≈ 0.14 µM), the “increase in potency relative to wild type E. coli” value ([2]; hyper-permeable E. coli strain (imp4213)) was 30 fold and the “increase in MIC values” ([2]; over-expression of LepB in E. coli K12 MG1655) was 8 fold. For the same compound, the “decrease in MIC values” ([2]; under-expression of LepB in E. coli K12 MG1655) was 16 fold.
